Some results are limits rather than exact numbers.

Results on eleven compounds are retold here after patent US12435090B2, “Compounds, pharmaceutical compositions, and methods of preparing compounds and of their use” (Repare Therapeutics Inc., priority 2021, dated 2025).

For the assay, the target named is recombinant human Myt1 (Homo sapiens (Human), UniProt Q99640). As to the kind of experiment: Myt1 enzymatic assay (ADP-Glo kinase assay). The following applies: 18 nM enzyme, 10 uM ATP. It is filed as biochemical. The protocol:
Detection of Myt1 kinase activity utilized a recombinant human Myt1 kinase assay measuring the hydrolysis of ATP using a commercially available ADP-Glo Assay (ADP-Glo™ Kinase Assay from Promega, 10 000 assays, #V9102). […] After this, 5 μL of compounds (diluted in reaction buffer to 0.5% DMSO) was added to the microplate and the plate was spun briefly and incubated at 22° C. for 15 minutes. Ultra-Pure Adenosine Triphosphate (ATP) solution (ADP-Glo kit from Promega) was diluted in reaction buffer and 5 μL was added to the microplate, spun down briefly and incubated for 60 minutes at 30° C. […] After the 60-minute incubation, 15 µL of ADP-Glo reagent was added and the plate was spun briefly and sealed and incubated in the dark for 40 minutes at 22° C. […] Luminescence was read using the Envision (250 ms integration). The IC50 and the % max inhibition were calculated for each inhibitor compound tested.

Sequence of recombinant human Myt1 (Q99640 whole entry): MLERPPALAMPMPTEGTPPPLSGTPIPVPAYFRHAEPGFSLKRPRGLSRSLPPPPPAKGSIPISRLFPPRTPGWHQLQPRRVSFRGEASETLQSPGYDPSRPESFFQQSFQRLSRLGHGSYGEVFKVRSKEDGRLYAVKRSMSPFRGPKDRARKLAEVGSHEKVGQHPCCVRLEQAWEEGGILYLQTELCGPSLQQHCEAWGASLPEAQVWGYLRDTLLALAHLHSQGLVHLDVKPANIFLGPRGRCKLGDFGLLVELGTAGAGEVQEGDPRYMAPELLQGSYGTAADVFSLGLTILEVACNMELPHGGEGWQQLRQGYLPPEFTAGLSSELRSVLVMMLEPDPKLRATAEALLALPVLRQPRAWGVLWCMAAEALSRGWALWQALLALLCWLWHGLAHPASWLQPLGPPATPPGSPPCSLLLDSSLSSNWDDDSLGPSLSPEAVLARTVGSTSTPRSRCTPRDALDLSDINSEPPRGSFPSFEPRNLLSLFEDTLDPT

Turning to `NC(=O)c1c(N)n(-c2cccc3[nH]ncc23)c2ncc(C3CC3)nc12` [Compound 330, 6-amino-2-cyclopropyl-5-(1H-indazol-4-yl)pyrrolo[2,3-b]pyrazine-7-carboxamide], the IC50 is 106 nM. As for `CCCCc1cnc2c(n1)c(C(N)=O)c(N)n2-c1cccc2[nH]ncc12` [Compound 331], the concentration for half-maximal inhibition (IC50) is 1320 nM.

With `NC(=O)c1c(N)n(-c2cccc3[nH]ncc23)c2ncc(-c3nccs3)nc12` [Compound 332], the IC50 is 142 nM. For the compound `NC(=O)c1c(N)n(-c2cccc3[nH]ncc23)c2ncc(-c3ncc(F)cc3F)nc12` [Compound 333, 6-amino-2-(3,5-difluoro-2-pyridyl)-5-(1H-indazol-4-yl)pyrrolo[2,3-b]pyrazine-7-carboxamide], the IC50 worked out at 52 nM.

`NC(=O)c1c(N)n(-c2cccc3[nH]ncc23)c2ncc(Cl)cc12` [Compound 334, 2-amino-5-chloro-1-(1H-indazol-4-yl)pyrrolo[2,3-b]pyridine-3-carboxamide]: the IC50 is 50 nM.

With `Cc1ccc2[nH]ncc2c1-n1c(N)c(C(N)=O)c2cc(Cl)cnc21` [Compound 335], the IC50 is 40 nM. Regarding `Cc1cc2c(C(N)=O)c(N)c(-c3c(C)ccc(O)c3C)n2cc1C` [Compound 336, 2-amino-3-(3-hydroxy-2,6-dimethylphenyl)-6,7-dimethylindolizine-1-carboxamide], the IC50 came to 38 nM.

For the compound `Cc1cn2c(C(N)=O)c(N)c(-c3c(C)ccc(O)c3C)c2nc1C` [Compound 337, 7-amino-8-(3-hydroxy-2,6-dimethylphenyl)-2,3-dimethylpyrrolo[1,2-a]pyrimidine-6-carboxamide], the IC50 is less than 10 nM. In the case of `Cc1cc2c(-c3c(C)ccc(O)c3C)c(N)c(C(N)=O)n2cc1C` [Compound 338, 2-amino-1-(3-hydroxy-2,6-dimethylphenyl)-6,7-dimethylindolizine-3-carboxamide] it was 108 nM. Under `Cc1ccc(O)cc1-c1cn(C(N)=O)c2cc(Cl)cnc12` [Compound 345, 6-chloro-3-(5-hydroxy-2-methyl-phenyl) pyrrolo[3,2-b]pyridine-1-carboxamide] stands 323 nM; under `Cc1ccc(O)c(C)c1-n1cc(C(N)=O)c2cc(Cl)ccc21` [Compound 346, 5-chloro-1-(3-hydroxy-2,6-dimethylphenyl)-1H-indole-3-carboxamide], 234 nM.

The term IC50 denotes the concentration that gives 50% inhibition.
